Here are results for 7 molecules from paper PMC5033074 (Nature chemical biology, 2016).

Where two headings read alike, the source gives them in different places. A value given as a limit tells only on which side of the number the result lay.

The target in test [1] is ERK1 (Homo sapiens, UniProt P27361). The test can be described thus: kinase assay, control kinase. Type of test: biochemical.
Test [2] has as its target CDK13 (Homo sapiens, UniProt Q14004). Kind of test: Ambit in vitro binding profiling.
Test [3] deals with CDK12-cyclin K complexes (Homo sapiens, UniProt Q9NYV4). The test can be described thus: target-engagement assay. Type of test: cell-based. The following applies: competition with lysate-introduced bioTHZ1.
Test [4] has as its system Jurkat T-cell acute lymphoblastic leukemia cells. Kind of test: Jurkat proliferation assay. Type of test: cell-based, human. The note with it: for antiproliferative activity in Jurkat cells: 72 hrs, CellTiter Glo.
For test [5], the system named is Jurkat cells. The test can be described thus: Annexin V / propidium iodide flow cytometry. The test is classed as cell-based, human.
Test [6] relates to steady-state mRNA levels in Jurkat cells. Kind of test: gene expression analysis. Type of test: cell-based, human. The note with it: for effect on steady-state mRNA levels: 500 nM, 6h.
The test system of test [7] is Pol II CTD Ser2 phosphorylation. Kind of test: Pol II CTD phosphorylation immunoblot. The note with it: Jurkat cells, 6 hrs. The test is classed as cell-based, human.
The test system of test [8] is pSer2 Pol II occupancy in Jurkat cells. Kind of test: pSer2 Pol II ChIP-seq. The test is classed as cell-based, human.
Test [9] deals with HAP1 cells. The test can be described thus: HAP1 WT vs CDK12 C1039S proliferation assay. The note with it: 72 hours. Type of test: cell-based, human.
Test [10] concerns the target CDK12- cyclin K complex (Homo sapiens, UniProt Q9NYV4). The test can be described thus: mass spectrometry of protein-inhibitor complex. The test is classed as binding. The following applies: 17 µM complex, 25 µM compound, overnight at 4°C.
The test system of test [11] is other 211 kinases. The test can be described thus: KiNativ intracellular kinase profiling. The note with it: ATP-desthiobiotin probe.
The test system of test [12] is Pol II CTD Ser2 phosphorylation. The following applies: cited from earlier work.
Test [13] has as its target CDK7-cyclin H-MAT1 (Homo sapiens, UniProt P50613). Type of test: biochemical. The following applies: compared with THZ531.
Test [14] deals with CDK9-cyclin T1 (Homo sapiens, UniProt P50750). The test can be described thus: radiometric in vitro kinase assay. Type of test: biochemical. The note with it: compared with THZ531.
Chain of CDK9-cyclin T1 (P50750 whole entry): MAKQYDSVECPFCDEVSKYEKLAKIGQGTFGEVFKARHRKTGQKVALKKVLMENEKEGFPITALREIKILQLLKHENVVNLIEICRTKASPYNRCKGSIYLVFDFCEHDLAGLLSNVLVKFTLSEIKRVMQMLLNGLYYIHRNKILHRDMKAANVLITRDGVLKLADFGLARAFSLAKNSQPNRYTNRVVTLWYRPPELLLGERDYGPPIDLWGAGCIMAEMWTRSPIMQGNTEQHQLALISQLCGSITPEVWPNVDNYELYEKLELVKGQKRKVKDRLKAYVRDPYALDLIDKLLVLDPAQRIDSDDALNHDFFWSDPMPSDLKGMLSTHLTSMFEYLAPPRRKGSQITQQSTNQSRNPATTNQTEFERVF
Chain of CDK9-cyclin T1 (O60563 1-272 partner limits assumed): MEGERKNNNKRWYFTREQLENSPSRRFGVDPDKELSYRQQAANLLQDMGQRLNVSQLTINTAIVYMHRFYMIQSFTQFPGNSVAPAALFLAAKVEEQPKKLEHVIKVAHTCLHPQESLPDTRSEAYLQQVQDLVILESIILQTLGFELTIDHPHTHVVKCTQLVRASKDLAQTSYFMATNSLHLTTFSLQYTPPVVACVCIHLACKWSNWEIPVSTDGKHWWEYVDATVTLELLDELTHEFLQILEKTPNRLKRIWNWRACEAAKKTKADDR
In test [15] the test system is CDK12-cyclin K, CDK13-cyclin K and CDK7-cyclin H complexes. The note with it: 1 µM biotinylated probe.
The target in test [16] is CDK12-cyclin K (Homo sapiens, UniProt Q9NYV4). The test is classed as biochemical. The note with it: relative to THZ531.
Chain of CDK12-cyclin K (Q9NYV4 696-1082 limits assumed): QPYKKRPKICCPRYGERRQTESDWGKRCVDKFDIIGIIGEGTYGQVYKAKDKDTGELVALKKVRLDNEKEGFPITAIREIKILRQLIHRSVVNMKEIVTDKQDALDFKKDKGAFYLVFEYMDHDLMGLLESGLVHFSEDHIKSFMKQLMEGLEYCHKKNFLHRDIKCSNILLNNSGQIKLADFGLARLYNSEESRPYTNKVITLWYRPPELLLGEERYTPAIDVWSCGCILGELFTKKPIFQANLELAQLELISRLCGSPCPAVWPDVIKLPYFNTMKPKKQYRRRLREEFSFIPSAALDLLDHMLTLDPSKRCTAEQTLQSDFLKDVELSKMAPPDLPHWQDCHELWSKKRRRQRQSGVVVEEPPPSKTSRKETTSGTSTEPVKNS
Chain of CDK12-cyclin K (O75909 1-267 partner limits assumed): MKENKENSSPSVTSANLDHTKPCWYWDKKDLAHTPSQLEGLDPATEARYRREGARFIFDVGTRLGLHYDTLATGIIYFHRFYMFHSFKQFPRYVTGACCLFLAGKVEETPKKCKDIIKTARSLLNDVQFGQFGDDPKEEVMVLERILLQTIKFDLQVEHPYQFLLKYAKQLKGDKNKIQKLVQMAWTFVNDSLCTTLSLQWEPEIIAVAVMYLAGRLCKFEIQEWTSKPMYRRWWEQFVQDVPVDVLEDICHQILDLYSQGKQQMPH
Test [17] has as its target CDK13-cyclin K (Homo sapiens, UniProt Q14004). Kind of test: radiometric in vitro kinase assay. Type of test: biochemical. The following applies: relative to THZ531.
The target in test [18] is human CDK12 residues 715-1052 (human, UniProt Q9NYV4-1 715-1052, THZ531 covalently bound to Cys-1039; phosphorylated (site not stated)). The test can be described thus: crystal structure.
Chain of human CDK12 residues 715-1052 (Q9NYV4 715-1052): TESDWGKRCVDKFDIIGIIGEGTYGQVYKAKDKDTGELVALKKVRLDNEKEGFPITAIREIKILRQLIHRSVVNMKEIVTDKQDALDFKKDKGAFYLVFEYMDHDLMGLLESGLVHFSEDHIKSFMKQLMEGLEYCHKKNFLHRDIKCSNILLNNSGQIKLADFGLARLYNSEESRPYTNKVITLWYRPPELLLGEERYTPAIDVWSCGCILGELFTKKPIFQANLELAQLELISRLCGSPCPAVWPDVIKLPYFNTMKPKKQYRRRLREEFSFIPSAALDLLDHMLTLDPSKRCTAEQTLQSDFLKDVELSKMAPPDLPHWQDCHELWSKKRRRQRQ

Chain of CDK7-cyclin H-MAT1 (P50613 whole entry): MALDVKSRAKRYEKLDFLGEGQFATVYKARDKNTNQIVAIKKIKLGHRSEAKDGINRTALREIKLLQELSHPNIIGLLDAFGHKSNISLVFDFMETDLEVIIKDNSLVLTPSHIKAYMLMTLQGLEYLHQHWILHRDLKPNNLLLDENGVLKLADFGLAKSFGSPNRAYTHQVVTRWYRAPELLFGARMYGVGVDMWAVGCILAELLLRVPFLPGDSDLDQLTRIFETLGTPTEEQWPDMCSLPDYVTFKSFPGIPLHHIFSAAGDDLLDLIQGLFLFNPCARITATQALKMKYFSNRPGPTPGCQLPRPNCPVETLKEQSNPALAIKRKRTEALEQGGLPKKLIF
Chain of CDK7-cyclin H-MAT1 (P51946 whole entry partner): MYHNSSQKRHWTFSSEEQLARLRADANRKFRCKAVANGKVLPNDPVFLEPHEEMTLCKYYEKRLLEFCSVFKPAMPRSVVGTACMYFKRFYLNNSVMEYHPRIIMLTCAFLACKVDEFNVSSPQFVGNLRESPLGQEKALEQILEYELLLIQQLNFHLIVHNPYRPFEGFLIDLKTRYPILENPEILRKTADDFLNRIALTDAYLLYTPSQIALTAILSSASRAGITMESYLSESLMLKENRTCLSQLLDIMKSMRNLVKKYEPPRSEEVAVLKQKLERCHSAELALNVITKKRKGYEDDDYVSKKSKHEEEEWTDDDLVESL
Chain of CDK7-cyclin H-MAT1 (P51948 whole entry partner): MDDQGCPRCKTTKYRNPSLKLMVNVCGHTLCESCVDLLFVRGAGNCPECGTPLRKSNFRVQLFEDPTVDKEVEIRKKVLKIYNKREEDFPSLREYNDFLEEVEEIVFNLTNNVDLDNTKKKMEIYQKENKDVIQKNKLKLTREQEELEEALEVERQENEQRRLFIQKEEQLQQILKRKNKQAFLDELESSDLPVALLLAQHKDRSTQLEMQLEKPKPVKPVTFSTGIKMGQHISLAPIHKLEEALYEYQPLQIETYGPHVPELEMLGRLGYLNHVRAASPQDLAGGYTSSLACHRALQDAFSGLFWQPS
Chain of CDK13-cyclin K (Q14004 694-1039 limits assumed): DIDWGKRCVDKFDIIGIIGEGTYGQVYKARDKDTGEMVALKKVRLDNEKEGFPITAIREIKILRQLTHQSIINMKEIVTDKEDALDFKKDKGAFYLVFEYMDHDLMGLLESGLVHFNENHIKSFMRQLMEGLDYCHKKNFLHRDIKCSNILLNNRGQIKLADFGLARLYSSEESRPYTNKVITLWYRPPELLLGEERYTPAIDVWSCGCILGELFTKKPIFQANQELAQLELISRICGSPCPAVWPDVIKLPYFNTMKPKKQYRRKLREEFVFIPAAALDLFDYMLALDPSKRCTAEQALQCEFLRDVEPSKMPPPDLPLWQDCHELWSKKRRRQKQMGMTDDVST
Chain of CDK13-cyclin K (O75909 1-267 partner limits assumed): as the sequence (O75909 1-267 partner limits assumed) above
Chain of ERK1 (P27361 whole entry, species assumed): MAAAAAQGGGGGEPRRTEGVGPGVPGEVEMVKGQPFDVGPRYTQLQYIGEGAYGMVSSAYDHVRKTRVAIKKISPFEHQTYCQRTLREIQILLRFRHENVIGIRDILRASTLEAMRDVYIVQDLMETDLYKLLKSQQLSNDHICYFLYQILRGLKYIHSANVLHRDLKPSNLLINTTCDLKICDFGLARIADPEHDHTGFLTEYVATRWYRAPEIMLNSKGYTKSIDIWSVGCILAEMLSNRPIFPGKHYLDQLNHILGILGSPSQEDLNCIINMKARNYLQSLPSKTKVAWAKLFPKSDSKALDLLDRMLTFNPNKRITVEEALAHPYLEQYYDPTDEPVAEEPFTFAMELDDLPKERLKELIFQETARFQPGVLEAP
Chain of CDK12- cyclin K complex (Q9NYV4 715-1052, one chain of several): as the sequence (Q9NYV4 715-1052) above
Chain of CDK13 (Q14004 whole entry): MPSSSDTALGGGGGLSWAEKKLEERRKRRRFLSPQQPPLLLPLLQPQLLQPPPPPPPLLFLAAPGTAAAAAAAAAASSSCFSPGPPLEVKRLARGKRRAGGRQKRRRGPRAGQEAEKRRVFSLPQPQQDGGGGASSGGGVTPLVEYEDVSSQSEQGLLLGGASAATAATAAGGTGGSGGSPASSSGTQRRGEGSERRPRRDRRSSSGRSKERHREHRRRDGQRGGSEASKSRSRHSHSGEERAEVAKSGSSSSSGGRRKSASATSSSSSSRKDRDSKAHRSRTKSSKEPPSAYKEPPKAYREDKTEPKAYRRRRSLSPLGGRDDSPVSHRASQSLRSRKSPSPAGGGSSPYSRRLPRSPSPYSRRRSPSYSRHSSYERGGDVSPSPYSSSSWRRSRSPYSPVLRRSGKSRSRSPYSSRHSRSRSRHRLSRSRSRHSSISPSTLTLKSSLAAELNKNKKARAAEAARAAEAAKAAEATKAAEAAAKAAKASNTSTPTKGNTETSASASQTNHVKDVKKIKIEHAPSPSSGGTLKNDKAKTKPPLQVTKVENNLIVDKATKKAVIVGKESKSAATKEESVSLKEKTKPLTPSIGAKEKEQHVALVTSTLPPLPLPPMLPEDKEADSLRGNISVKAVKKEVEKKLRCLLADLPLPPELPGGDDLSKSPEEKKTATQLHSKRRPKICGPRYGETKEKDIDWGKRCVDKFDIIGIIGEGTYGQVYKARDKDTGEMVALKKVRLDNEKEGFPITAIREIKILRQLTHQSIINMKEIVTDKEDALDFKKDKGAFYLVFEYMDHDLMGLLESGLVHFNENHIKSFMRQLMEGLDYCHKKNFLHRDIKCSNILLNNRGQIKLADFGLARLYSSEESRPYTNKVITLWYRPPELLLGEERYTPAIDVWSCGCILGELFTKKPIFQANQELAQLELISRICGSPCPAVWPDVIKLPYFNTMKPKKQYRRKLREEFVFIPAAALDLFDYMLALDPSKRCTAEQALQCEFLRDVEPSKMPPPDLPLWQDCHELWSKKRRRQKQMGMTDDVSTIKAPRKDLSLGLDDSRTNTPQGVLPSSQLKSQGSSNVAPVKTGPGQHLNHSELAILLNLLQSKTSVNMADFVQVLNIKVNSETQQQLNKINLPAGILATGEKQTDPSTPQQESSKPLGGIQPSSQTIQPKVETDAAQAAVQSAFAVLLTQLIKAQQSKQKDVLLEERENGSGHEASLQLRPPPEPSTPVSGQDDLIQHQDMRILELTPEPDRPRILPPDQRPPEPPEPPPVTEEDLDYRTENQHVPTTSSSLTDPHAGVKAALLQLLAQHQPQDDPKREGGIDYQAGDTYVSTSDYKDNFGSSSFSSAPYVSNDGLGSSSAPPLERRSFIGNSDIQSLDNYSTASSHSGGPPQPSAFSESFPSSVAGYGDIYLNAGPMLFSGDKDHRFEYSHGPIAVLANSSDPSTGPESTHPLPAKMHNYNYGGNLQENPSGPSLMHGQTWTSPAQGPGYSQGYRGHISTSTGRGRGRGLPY

With `CN(C)C/C=C/C(=O)Nc1ccc(C(=O)N2CCC[C@@H](Nc3ncc(Cl)c(-c4c[nH]c5ccccc45)n3)C2)cc1` [THZ531, (R,E)-N-(4-(3-((5-chloro-4-(1H-indol-3-yl)pyrimidin-2-yl)amino)piperidine-1-carbonyl)phenyl)-4-(dimethylamino)but-2-enamide], in test [1], the “inhibitory effect on ERK1” value is on record as “no appreciable inhibitory effect”. In test [2], the “Ambit profiling score of CDK13” value was “among the top scoring kinases”. In test [3], the “binding to intracellular CDK12-cyclin K vs CDK7-cyclin H” value is “binds intracellular CDK12-cyclin K complexes with higher affinity than CDK7-cyclin H complexes”. The IC50 in test [4] (Homo sapiens, Jurkat, 72 h, read-out: IC50 Jurkat cell proliferation) is 50 nM. The “percentage of apoptotic cells over DMSO control” value in [5] (50 nM, time course of the experiment) is “no increase in the percentage of apoptotic cells”. Further, the “annexin V-positively stained cells” value in [5] (higher doses (above 50 nM), by 72 hrs) is 30–40%. Also, in test [6] (50 nM), the “expression of core DDR genes BRCA1, FANCF, ERCC4” value was “substantial loss of expression”. In addition, the “effect on Pol II CTD phosphorylation” value in test [7] is listed as “selectively reduced Ser2 phosphorylation levels without appreciable effect on CTD pSer5/pSer7 levels”. The figures for the “pSer2 ChIP-seq signal” value in test [8] (50 nM) and in test [8] (500 nM) were “did not appreciably change pSer2 ChIP-seq signal” and “dramatic decrease in 3’ end –associated pSer2 ChIP-seq signal”, respectively. Moreover, the “effect of CDK12 C1039S substitution on antiproliferative effect” value in [9] is given as “partial restoration of cellular proliferation”. In test [10], the “covalent binding to CDK12-cyclin K” value is recorded as “Near complete covalent binding”. Also, the “labeling of the other 211 kinases (not CDK12 and 13)” value in test [11] was ≤ 55%.
Regarding `CN(C)C/C=C/C(=O)Nc1ccc(C(=O)Nc2cccc(Nc3ncc(Cl)c(-c4c[nH]c5ccccc45)n3)c2)cc1` [THZ1], the “effect on Pol II CTD phosphorylation” value in test [12] is reported as “complete loss of Pol II CTD phosphorylation”.
On to `CN(C)C/C=C/C(=O)Nc1ccc(C(=O)N2CCC[C@H](Nc3ncc(Cl)c(-c4c[nH]c5ccccc45)n3)C2)cc1` [THZ532, (S,E)-N-(4-(3-((5-chloro-4-(1H-indol-3-yl)pyrimidin-2-yl)amino)piperidine-1-carbonyl)phenyl)-4-(dimethylamino)but-2-enamide], for which the “inhibition activity on CDK7” value in test [13] is given as “similarly–low–inhibition activity”. Further, in test [14], the “inhibition activity on CDK9” value is on record as “similarly–low–inhibition activity”. The “antiproliferative activity in Jurkat cells” value in test [4] is “minimal antiproliferative activity”. For the same molecule, in [6], the “effect on steady-state mRNA levels” value is “decreased neither Ser2 phosphorylation nor steady-state mRNA levels”. Besides, the “effect on Pol II CTD phosphorylation” value in [7] was “decreased neither Ser2 phosphorylation”.
`CC1NC(=O)NC1CCCCCC(=O)NCCOCCOCCOCCNC(=O)CCN(C)C/C=C/C(=O)Nc1ccc(C(=O)N2CCC[C@@H](Nc3ncc(Cl)c(-c4c[nH]c5ccccc45)n3)C2)cc1` (stereo partly drawn) [bioTHZ531, N-((E)-20-((4-((R)-3-((5-chloro-4-(1H-indol-3-yl)pyrimidin-2-yl)amino)piperidine-1-carbonyl)phenyl)amino)-16-methyl-13,20-dioxo-3,6,9-trioxa-12,16-diazaicos-18-en-1-yl)-6-(5-methyl-2-oxoimidazolidin-4-yl)hexanamide]: the complexes pulled down entry in test [15] was “pulls down CDK12-cyclin K and CDK13-cyclin K complexes, but not CDK7-cyclin H complexes”.
As for `CN(C)CCCC(=O)Nc1ccc(C(=O)N2CCC[C@@H](Nc3ncc(Cl)c(-c4c[nH]c5ccccc45)n3)C2)cc1` [THZ531R, (R)-N-(4-(3-((5-chloro-4-(1H-indol-3-yl)pyrimidin-2-yl)amino)piperidine-1-carbonyl)phenyl)-4-(dimethylamino)butanamide], the entries for the “fold less active on CDK12 than THZ531” value in test [16] and in test [16] (listed as reversible analog) were 50–100 fold and “more than 100 fold”, respectively. Further, the “fold less active on CDK13 than THZ531” value is on record as 50–100 fold in test [17] and “more than 100 fold” in [17] (listed as reversible analog). For the same molecule, the “inhibition activity on CDK7” value in test [13] is listed as “similarly–low–inhibition activity”. Further, the “inhibition activity on CDK9” value in test [14] is “similarly–low–inhibition activity”. For the same molecule, the “antiproliferative activity in Jurkat cells” value in test [4] was “minimal antiproliferative activity”. In test [6], the “effect on steady-state mRNA levels” value is “decreased neither Ser2 phosphorylation nor steady-state mRNA levels”. Further, the “effect on Pol II CTD phosphorylation” value in [7] is reported as “decreased neither Ser2 phosphorylation”.
Consider `CN(C/C=C/C(=O)Nc1ccc(C(=O)Nc2cccc(Nc3ncc(Cl)c(-c4c[nH]c5ccccc45)n3)c2)cc1)CCCNC(=O)NCCOCCOCCOCCNC(=O)CCCC[C@@H]1SC[C@@H]2NC(=O)N[C@@H]21` [bioTHZ1, reference compound], for which the complexes pulled down result in [15] was “pulls down CDK7, CDK12, and 13 complexes”.

B1: human cyclin K residues 11-267 (domain or fragment, UniProt O75909 11-267, looked up)
chain: SVTSANLDHTKPCWYWDKKDLAHTPSQLEGLDPATEARYRREGARFIFDVGTRLGLHYDTLATGIIYFHRFYMFHSFKQFPRYVTGACCLFLAGKVEETPKKCKDIIKTARSLLNDVQFGQFGDDPKEEVMVLERILLQTIKFDLQVEHPYQFLLKYAKQLKGDKNKIQKLVQMAWTFVNDSLCTTLSLQWEPEIIAVAVMYLAGRLCKFEIQEWTSKPMYRRWWEQFVQDVPVDVLEDICHQILDLYSQGKQQMPH
As to B1, the binding result in test [18] is recorded as “binds”.
